{"source": "patent US11111484B2", "about": "“Streptococcus bacteriophage lysins for detection and treatment of gram positive bacteria” (priority 2011, dated 2021)", "key": {"MRSA strain MW2": {"tested_on": "MRSA strain MW2", "test": "resistance assay, exposure to incrementally increasing concentrations", "format": "cell-based, Staphylococcus aureus", "settings": "concentration doubled daily from 1/32 to 4× MIC over 8 days"}, "MSSA strain 8325": {"tested_on": "MSSA strain 8325", "test": "resistance assay, exposure to incrementally increasing concentrations", "format": "cell-based, Staphylococcus aureus", "settings": "MSSA 8325; concentration doubled daily from 1/32 to 4× MIC over 8 days"}}, "data": [{"smiles": "C/C(=C\\C(=O)OCCCCCCCCC(=O)O)C[C@@H]1OC[C@H](C[C@@H]2O[C@H]2[C@@H](C)[C@H](C)O)[C@@H](O)[C@H]1O", "note": "[mupirocin, reference compound]", "values": [{"measurement": "development of resistance", "setting": "MRSA strain MW2", "value": "developed resistance"}, {"measurement": "development of resistance", "setting": "MSSA strain 8325", "value": "developed resistance"}]}]}
